Common to all, as to format: functional, cell-based
For series [1], the target named is T1, Solute carrier organic anion transporter family member 1A3 (Rattus norvegicus, UniProt P70502).
T1 sequence (P70502 whole entry): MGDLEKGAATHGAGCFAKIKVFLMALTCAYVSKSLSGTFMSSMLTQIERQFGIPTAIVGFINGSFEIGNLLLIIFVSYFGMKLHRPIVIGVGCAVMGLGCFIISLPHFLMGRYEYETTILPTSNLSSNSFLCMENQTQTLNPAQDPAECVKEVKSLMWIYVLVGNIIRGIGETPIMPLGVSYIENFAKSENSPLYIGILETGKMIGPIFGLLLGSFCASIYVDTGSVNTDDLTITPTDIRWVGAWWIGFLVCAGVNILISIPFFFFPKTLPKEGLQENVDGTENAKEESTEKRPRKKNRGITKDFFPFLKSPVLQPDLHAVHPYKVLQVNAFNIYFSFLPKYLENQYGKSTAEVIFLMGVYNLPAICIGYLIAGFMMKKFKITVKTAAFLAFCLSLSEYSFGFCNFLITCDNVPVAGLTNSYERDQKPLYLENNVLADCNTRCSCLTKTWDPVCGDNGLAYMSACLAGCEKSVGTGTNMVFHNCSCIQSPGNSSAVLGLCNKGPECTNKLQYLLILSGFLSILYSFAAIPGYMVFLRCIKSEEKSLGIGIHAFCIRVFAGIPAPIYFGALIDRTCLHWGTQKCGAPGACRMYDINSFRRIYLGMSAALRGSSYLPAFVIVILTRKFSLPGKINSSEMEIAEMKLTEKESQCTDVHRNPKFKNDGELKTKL
Briefly: TP_TRANSPORTER: inhibition of MTX uptake (MTX: 0.01 uM, PAH: 100 uM) in OAT-K1-expressing MDCK cells. The following applies: dog.

Series [2] deals with T1, Solute carrier organic anion transporter family member 1A3. Kind of series: TP_TRANSPORTER: uptake in Xenopus laevis oocytes. Conditions: oocyte.
Substrate in series [3]: CN(Cc1cnc2nc(N)nc(N)c2n1)c1ccc(C(=O)N[C@@H](CCC(=O)O)C(=O)O)cc1
Kind of series: TP_TRANSPORTER: uptake in OAT-K1-expressing MDCK cells.

For `Nc1ccc(C(=O)NCC(=O)O)cc1` [AMINOHIPPURIC ACID], the results for the Activity entry in series [1] and in series [2] were “inhibitor [(at a rough estimate) 55 % of control]” and “is not a substrate [-]”, respectively.

B1: Solute carrier organic anion transporter family member 1A3 (Rattus norvegicus) (protein)
chain: T1 sequence (P70502 whole entry)
What is called Km is the substrate concentration at which the rate is half of its maximum. For B1, the Km in series [3] turned out to be 2.1 µM.

The values are drawn from ChEMBL document CHEMBL2074116, “Functional analysis of rat renal organic anion transporter OAT-K1: bidirectional methotrexate transport in apical membrane” (FEBS Lett, 1999).
